pIC50: −log10 of the molar value. Where only a bound is given, the exact number is not on record here.

What is called pIC50 is the negative decadic logarithm of the IC50, by convention in mol/L. The low end stands for a high IC50, the high end for a low IC50.

The assay deals with T1, Human eIF4E (Homo sapiens, UniProt P06730).
T1 construct: Human eIF4E (aa 28-217) with a C-terminal His-tag; made in house
T1 sequence (P06730 28-217): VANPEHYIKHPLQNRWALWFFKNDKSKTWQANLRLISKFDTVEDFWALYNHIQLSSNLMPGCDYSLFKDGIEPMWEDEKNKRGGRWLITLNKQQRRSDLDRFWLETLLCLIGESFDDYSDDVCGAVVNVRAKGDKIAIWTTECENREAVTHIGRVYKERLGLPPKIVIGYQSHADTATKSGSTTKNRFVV
The assay can be described thus: Human eIF4E/4G2 binding assay (TR-FRET). To be noted: purified human eIF4E (aa 28-217), biotin labeled 4G2 peptide, 4 hours preincubation at room temperature. On the procedure:
Example 3. Compound Testing in Human eIF4E/4G2 Binding Assay
Human eIF4E (aa 28-217) with a C-terminal His-tag was expressed in E. coli in inclusion bodies. The protein was solubilized with 8 M urea and purified under denaturing conditions using nickel-charged HisTrap HP columns (GE Healthcare). The purified protein was then refolded by diluting in 20 mM Hepes pH 7.0, 0.5 M NaCl, 1 mM DTT, 1 mM EDTA, 0.5 M arginine plus 6 M urea, and then dialyzing overnight into the same buffer without the urea. The protein was further dialyzed into 20 mM Hepes, pH 6.5, 50 mM NaCl, 1 mM EDTA, 1 mM DTT, and concentrated using Hitrap SP sepharose FF columns (GE Healthcare). The concentrated protein was dialyzed into 20 mM Hepes, pH 7.0, 0.5 M NaCl, 5 mM DTT and 10% glycerol, and stored at -80° C. until use.
Test compounds (3.43 mM stock in DMSO) were diluted 2-fold in series in DMSO (10 concentration points). Compound solutions (1.2 µl/well) were added into black 384-well polypropylene microplates (Matrix, Thermal Scientific). Twenty-two microliters per well of Assay Buffer (50 mM NaPi, pH 6.5, 50 mM KCl, 1 mM DTT and 0.5 mg/ml gamma globulin) and eight microliters per well of 82.5 nM purified eIF4E in Assay Buffer were added. The samples were incubated at room temperature (20-23° C.) for 4 hours. Biotin labeled 4G2 peptide (Ac-Lys-Gln-Tyr-Asp-Arg-Glu-Phe-Leu-Leu-Asp-Phe-Gln-Phe-Met-Pro-Lys(Aha-Bio)-NH2, 1.75 µM stock in DMSO) was diluted to 0.14 µM in Assay Buffer (without DTT) and 5 µl/well was added. The samples were incubated at room temperature for 20 min. Five microliters per well of 6.4 nM Eu-streptavidin (Eu-SA, Perkin Elmer) and 80 nM Allophycocyanin (APC)-anti His antibody (Columbia Biosciences) in Assay Buffer (without DTT) were then added and the samples were incubated at room temperature for 20 min.
Assay signals were monitored by reading excitation at 340 nm and emission fluorescence at 615 nm and 665 nm on an Envision reader (Perkin Elmer). Normalized TR-FRET (time-resolved fluorescence resonance energy transfer) assay signal (Rn) was calculated by the formula: Rn = [(A-Ba-C x D)/(D-Bd)] x (Dc- Bd) • Where A is the fluorescence intensity of the sample at 665 nm, • D is the fluorescence intensity of the sample at 615 nm, • Ba and Bd are plate backgrounds at 665 nm and 615 nm, respectively, • Dc is the fluorescence intensity of 0.78 nM Eu-SA in the assay buffer at 615 nm • The cross-talk factor (C) is determined by the following formula: • C = (Ac- Ba)/(Dc-Bd) • Where Ac is the fluorescence intensity of 0.78 nM Eu-SA in the assay buffer at 665 nm.
IC50 values were calculated using xLFit program (IDBS). Table 2 below lists […] of some compounds, wherein A represents IC50 ≤ 0.5 µM; B represents 0.5 uM < IC50 ≤ 1 µM; and C represents IC50 > 1 µM.
The compound `CC(C)COc1cc(-c2nc(Nc3ncc(-c4cccs4)cc3C(=O)O)sc2CC(C)C)ccc1F` [I-89] gave a pIC50 of at least 6.30.
In turn, `CC(C)Cc1sc(Nc2ncc(-c3cccs3)cc2C(=O)O)nc1-c1ccsc1` [I-127] showed a pIC50 of at least 6.30.
The result for `COc1cc(-c2nc(Nc3ncc(-c4cccs4)cc3C(=O)O)sc2CC(C)C)ccc1C` [I-107] reads at least 6.30; that for `COCCOc1ccc(-c2nc(Nc3ncc(-c4cccs4)cc3C(=O)O)sc2C(C)C)cc1F` [I-31], 6.00 to 6.30; that for `COc1ccc(-c2nc(Nc3ncc(-c4cccs4)nc3C(=O)O)sc2CC(C)C)cc1F` [I-60, 3-((4-(3-fluoro-4-methoxyphenyl)-5-isobutylthiazol-2-yl)amino)-6-(thiophen-2-yl)pyrazine-2-carboxylic acid], at least 6.30.
The result for `COCCOc1cc(-c2nc(Nc3ncc(-c4cccs4)cc3C(=O)O)sc2CCC(C)C)ccc1Cl` [I-83] reads at least 6.30; that for `CC(C)Cc1sc(Nc2ncc(-c3cccs3)cc2C(=O)O)nc1-c1cccc(OCCF)c1` [I-103], at least 6.30; that for `COc1ccc(-c2nc(Nc3ncc(-c4cccs4)cc3C(=O)O)sc2C2CC2)cc1` [I-18], 6.00 to 6.30.
The result for `COc1cc(-c2nc(Nc3ncc(-c4cccs4)cc3C(=O)O)sc2CCC(C)C)ccc1C` [I-108] reads at least 6.30; that for `COCCOc1ccc(-c2nc(Nc3ncc(-c4cccs4)nc3C(=O)O)sc2CC(C)C)cc1F` [I-54], at least 6.30; that for `CCOc1cc(-c2nc(Nc3ncc(-c4cccs4)cc3C(=O)O)sc2CC(C)(C)C)ccc1F` [I-92], at least 6.30.
`CC(C)Cc1sc(Nc2ncc(-c3cccs3)cc2C(=O)O)nc1-c1cccc(OCCOCCN(C)C)c1` [I-116]: the pIC50 is below 6.00.
To `COCCOc1ccc(-c2nc(Nc3ncc(-c4cc(C)cs4)cc3C(=O)O)sc2CC(C)C)cc1` [1-35] belongs at least 6.30; to `COCCOc1cccc(-c2nc(Nc3ncc(-c4cccs4)cc3C(=O)OC)sc2CC(C)C)c1` [I-148, methyl 2-((5-isobutyl-4-(3-(2-methoxyethoxy)phenyl)thiazol-2-yl)amino)-5-(thiophen-2-yl)nicotinate], below 6.00.
For the compound `CCOc1cc(-c2nc(Nc3ncc(-c4cccs4)cc3C(=O)O)sc2CC(C)(C)C)ccc1Cl` [I-93], the pIC50 was at least 6.30.
To `CCOc1cccc(-c2nc(Nc3ncc(-c4cccs4)cc3C(=O)O)sc2CCC(C)C)c1` [I-105] belongs at least 6.30.
`COc1ccc(-c2nc(Nc3ncc(-c4cccs4)cc3C(=O)O)sc2CCC(C)C)cc1F` [I-69] showed a pIC50 of at least 6.30.
For `COc1cc(-c2nc(Nc3ncc(-c4cccs4)cc3C(=O)O)sc2CCC(C)C)ccc1Cl` [I-90], the pIC50 is at least 6.30.
The result for `COCCOc1ccc(-c2nc(Nc3ncc(-c4cccs4)cc3C(=O)OC)sc2CC(C)C)cc1F` [I-53, methyl 2-((4-(3-fluoro-4-(2-methoxyethoxy)phenyl)-5-isobutylthiazol-2-yl)amino)-5-(thiophen-2-yl)nicotinate] reads below 6.00; that for `CCCc1sc(Nc2ncc(-c3cccs3)cc2C(=O)O)nc1-c1ccc(OCCOC)c(F)c1` [I-49], 6.00 to 6.30.
The result for `Cc1csc(-c2cnc(Nc3nc(-c4ccc(OC(F)F)cc4)c(CC(C)C)s3)c(C(=O)O)c2)c1` [1-36] reads at least 6.30.
The result for `COc1ccc(-c2nc(Nc3cc(-c4ccccc4)sc3C(=O)O)sc2CC(C)C)cc1` [I-12] reads 6.00 to 6.30.
With `COc1ccc(-c2nc(Nc3cc(-c4ccccc4)sc3C(=O)O)sc2C2CC2)c(F)c1` [I-25], the pIC50 was 6.00 to 6.30.
The result for `CC(C)Cc1sc(Nc2ncc(-c3cccs3)cc2C(=O)O)nc1-c1cccc(OC(C)C)c1` [I-113] reads at least 6.30; that for `CCc1cccc(-c2nc(Nc3ncc(-c4cccs4)cc3C(=O)O)sc2CC(C)C)c1` [I-123], at least 6.30.
The result for `COCCOc1ccc(-c2nc(Nc3ncc(-c4cccs4)cc3C(=O)O)sc2CC(C)C)cc1C(F)(F)F` [I-58] reads at least 6.30; that for `CCCc1sc(Nc2ncc(-c3cccs3)cc2C(=O)O)nc1-c1cccc(OCC)c1` [I-112], at least 6.30.
In turn, `COc1cc(-c2nc(Nc3ncc(-c4cccs4)cc3C(=O)O)sc2CC(C)C)ccc1Cl` [I-74] had a pIC50 of at least 6.30.
To `COc1cc(C)cc(-c2nc(Nc3ncc(-c4cccs4)cc3C(=O)O)sc2CC(C)C)c1` [I-109] belongs at least 6.30.
To `COc1c(Cl)cc(-c2nc(Nc3ncc(-c4cccs4)cc3C(=O)O)sc2CC(C)C)cc1Cl` [I-4] belongs at least 6.30; to `COCCOc1ccc(-c2nc(Nc3ncc(-c4ccc(C)s4)cc3C(=O)O)sc2C2CCCC2)cc1` [I-37], at least 6.30.
On to `COCCOc1ccc(-c2nc(Nc3cc(-c4ccccc4)sc3C(=O)O)sc2C2CC2)cc1` [I-20], for which the pIC50 is 6.00 to 6.30.
The result for `COc1cc(-c2nc(Nc3ncc(-c4cccs4)cc3C(=O)O)sc2CC(C)(C)C)ccc1F` [I-91] reads at least 6.30; that for `COc1ccc(-c2nc(Nc3ccc(-c4cccs4)nc3C(=O)O)sc2CC(C)C)cc1F` [I-70], at least 6.30; that for `CC(C)Cc1sc(Nc2ncc(-c3cccs3)cc2C(=O)O)nc1-c1ccc(OC(F)F)cc1` [I-15], 6.00 to 6.30.
Turning to `COCCOc1ccc(-c2nc(Nc3ncc(-c4cccs4)cc3C(=O)O)sc2CCC(C)C)cc1Cl` [I-45], the pIC50 was at least 6.30.
`Cc1ccc(-c2nc(Nc3ncc(-c4cccs4)cc3C(=O)O)sc2CC(C)C)s1` [I-141] had a pIC50 of at least 6.30.
To `CCN(CC)CCOCCOc1cccc(-c2nc(Nc3ncc(-c4cccs4)cc3C(=O)O)sc2CC(C)C)c1` [I-117] belongs below 6.00; to `COCCOc1cc(-c2nc(Nc3ncc(-c4cccs4)cc3C(=O)O)sc2CC(C)C)ccc1C(F)(F)F` [I-76, 2-((5-isobutyl-4-(3-(2-methoxyethoxy)-4-(trifluoromethyl)phenyl)thiazol-2-yl)amino)-5-(thiophen-2-yl)nicotinic acid], at least 6.30.
For `CNCCOc1ccc(-c2nc(Nc3ncc(-c4cccs4)cc3C(=O)O)sc2CC(C)C)cc1Cl` [I-3, 2-((4-(3-chloro-4-(2-(methylamino)ethoxy)phenyl)-5-isobutylthiazol-2-yl)amino)-5-(thiophen-2-yl)nicotinic acid], the pIC50 is below 6.00.
`COc1ccc(-c2nc(Nc3ncc(-c4cccs4)cc3C(=O)O)sc2C2CC2)c(F)c1` [I-27] showed a pIC50 of 6.00 to 6.30.
In turn, `COCCOc1ccc(-c2nc(Nc3ncc(-c4cc(C)cs4)cc3C(=O)O)sc2C2CCCC2)cc1` [1-38] gave a pIC50 of 6.00 to 6.30.
Consider `CCOc1cccc(-c2nc(Nc3ncc(-c4cccs4)cc3C(=O)O)sc2CC(C)(C)C)c1` [I-98], for which the pIC50 is at least 6.30.
To `COc1cc(-c2nc(Nc3ncc(-c4cccs4)cc3C(=O)O)sc2CCC(C)C)ccc1F` [I-82] belongs at least 6.30; to `COCCOc1ccc(-c2nc(Nc3ncc(-c4cccs4)cc3C(=O)O)sc2CC(C)(C)C)cc1F` [I-65], at least 6.30; to `COCCCOc1ccc(-c2nc(Nc3ncc(-c4cccs4)cc3C(=O)O)sc2CC(C)C)cc1F` [I-47], at least 6.30.
The result for `COCCOc1ccc(-c2nc(Nc3ncc(-c4ccc(C)s4)cc3C(=O)O)sc2CC(C)C)cc1` [I-34] reads at least 6.30.
As for `COCCOc1ccc(-c2nc(Nc3ncc(-c4cccs4)cc3C(=O)O)sc2C2CCCC2)cc1F` [I-32], the pIC50 was 6.00 to 6.30.
Consider `COCCOc1ccc(-c2nc(Nc3ncc(-c4nccs4)cc3C(=O)O)sc2CC(C)C)cc1F` [I-51], for which the pIC50 is at least 6.30.
The result for `CC(C)Cc1sc(Nc2ncc(-c3cccs3)cc2C(=O)O)nc1-c1cccs1` [I-126] reads at least 6.30.
`COc1cc(-c2nc(Nc3ncc(-c4cccs4)cc3C(=O)O)sc2CC(C)C)ccc1F` [I-73] showed a pIC50 of 6.00 to 6.30.
To `COCCOc1ccc(-c2nc(Nc3ncc(-c4cccs4)cc3C(=O)O)sc2C2CC2)cc1F` [I-29] belongs 6.00 to 6.30.

Values taken from patent publication US20230150997A1, “EIF4E INHIBITORS AND USES THEREOF” (PIC Therapeutics, Inc., priority 2021, published 2023).
